Assay: xn = mol fraction of the nth substance listed
Settings: 101 kPa, Liquid, Vibrating tube method

C=C[Si](C)(C)O[Si](C)(C)C=C [1,3-diethenyl-1,1,3,3-tetramethyldisiloxane] + O=[N+]([O-])c1ccccc1
mass density [kg/m3]
Settings | 283.15 K | 288.15 K | 293.15 K | 298.15 K | 303.15 K
x1 = 0.05 | 1176.35 | 1171.43 | 1166.52 | 1161.69 | 1156.82
x1 = 0.1 | 1142.71 | 1137.83 | 1132.97 | 1128.22 | 1123.45
x1 = 0.15 | 1111.83 | 1106.98 | 1102.13 | 1097.43 | 1092.67
x1 = 0.2 | 1083.35 | 1078.52 | 1073.67 | 1068.96 | 1064.2
x1 = 0.25 | 1057.23 | 1052.41 | 1047.57 | 1042.87 | 1038.12
x1 = 0.3 | 1033.06 | 1028.23 | 1023.4 | 1018.69 | 1013.92
x1 = 0.3508 | 1010.38 | 1005.54 | 1000.74 | 996.01 | 991.23
x1 = 0.4001 | 989.98 | 985.14 | 980.32 | 975.57 | 970.77
x1 = 0.4501 | 970.75 | 965.91 | 961.08 | 956.32 | 951.52
x1 = 0.4999 | 952.93 | 948.07 | 943.22 | 938.45 | 933.61
x1 = 0.55 | 936.17 | 931.3 | 926.44 | 921.66 | 916.81
x1 = 0.6001 | 920.46 | 915.57 | 910.7 | 905.91 | 901.03
x1 = 0.6487 | 906.15 | 901.26 | 896.39 | 891.58 | 886.71
x1 = 0.6999 | 891.87 | 887 | 882.12 | 877.3 | 872.42
x1 = 0.7499 | 878.8 | 873.92 | 869.03 | 864.21 | 859.31
x1 = 0.7999 | 866.41 | 861.51 | 856.6 | 851.77 | 846.84
x1 = 0.8497 | 854.66 | 849.77 | 844.87 | 840.06 | 835.12
x1 = 0.9 | 843.43 | 838.53 | 833.62 | 828.8 | 823.86
x1 = 0.9499 | 832.79 | 827.88 | 822.98 | 818.14 | 813.2
x1 = 1 | 822.64 | 817.73 | 812.82 | 807.98 | 803.03
